This passage reports IC50 and inhibition in vivo results from patent US7618984B2, “Sulfonamide compound” (Asahi Kasei Pharma Corporation, priority 2005, dated 2009).

One test deals with neutrophils. The test can be described thus: Neutrophil migration inhibitory action, Boyden Chamber, FMLP (Test Example 3). The conditions noted are these: 0.5 h, human neutrophils, FMLP 1 μM, 37° C., 30 minutes, read-out: IC50, compound concentration providing a migration inhibition ratio of 50%. Format: cell-based. Here is the method:
Neutrophils were isolated from 50 to 100 ml of peripheral blood collected from healthy human donors by the method described in Test Example 1 to obtain a cell suspension (8×10^6/ml). Subsequently, solutions of a test compound at various concentrations were introduced into wells of a 96-well plate in a volume of 125 μl per well, the cell suspension of an equivalent volume was added to it and the plate was preincubated at room temperature for 5 minutes. During the preincubation, FMLP (1 μM, Sigma) solution was added to the lower chamber to set Boyden Chamber, the preincubated cell suspension was added to the upper chamber in a volume of 200 μl per well, and the cells were allowed to migrate at 37° C. under 5% carbon dioxide for 30 minutes. The filter after the migration was collected, and the non-migrated cells adhered to the surface that faced the upper chamber were carefully wiped off. Then, the migrated cells on the back surface were stained with DifQuick dye solution (International Reagents), washed with water and dried, and then absorbance was measured at 595 nm. The inhibition ratio against migration (%) of a test compound was calculated by using the following equation: Migration inhibition ratio(%)=(1−Absorbance of the group with addition of test compound/Absorbance of the group without addition of test compound)×100
Further, the migration inhibitory ratio was calculated with changing the test compound concentration, and a compound concentration providing an inhibition ratio of 50% was obtained as IC50.

For test [1], the system named is rabbit normal intraocular pressure. Kind of test: Intraocular pressure reducing action (Test Example 2). Format: in vivo, Japanese white rabbit. The conditions noted are these: Oryctolagus cuniculus, topical; 3 mM aqueous solution, 50 μl to the left eye; measured after 2, 4 and 6 hours; read-out: intraocular pressure reducing degree (max ΔIOP / intraocular pressure value immediately before administration × 100). Here is the method:
A Japanese white rabbit having a body weight of about 2 kg was placed in a positioner and naturalized for one week before the experiment. An opthalmologic local anesthesant (Benoxil) was administered to both eyes, and then intraocular pressure was measured by using a tonometer (Classic 30, Solan). A 3 mM aqueous solution of a test compound was administered in a volume of 50 μl to the left eye, and the right eye was not treated (control eye). The intraocular pressure values were measured for the left and right eyes immediately before, and 2, 4 and 6 hours after the administration of the aqueous solution of the test compound, and the difference of the measured values for the left and right eyes was considered an intraocular pressure reduction value of the test medicament at each measurement time. The largest difference of the values for the left and right eyes among the measured values at the measurement times (after 2, 4 and 6 hours) was considered the maximum intraocular pressure reduction value (max ΔIOP) of each test medicament. The intraocular pressure reducing degree representing the intraocular pressure reducing action of each test medicament was calculated according to the following formula. Since rabbits show significant daily variation of intraocular pressure, daily variation is added when change of intraocular pressure is measured over time, and the intraocular pressure reducing action may be overestimated. Therefore, we used this calculation method of intraocular pressure reduction value in order to minimize the influence of the variation. Intraocular pressure reducing degree (%)=(max ΔIOP/Intraocular pressure value immediately before administration)×100

For test [2], the system named is phosphorylation of myosin regulatory light chain. The test can be described thus: Inhibitory action on phosphorylation of myosin regulatory light chain (Test Example 1). The conditions noted are these: Neutrophil, 5 min; human peripheral blood neutrophils, 25° C. for 5 minutes; read-out: IC50, compound concentration providing a phosphorylation inhibition ratio of 50% (myosin regulatory light chain). Format: cell-based. Here is the method:
A volume of 50 to 100 ml of peripheral blood collected from healthy volunteers was centrifuged by using Mono-Poly separator solution (Dainippon Pharmaceutical) to prepare a neutrophil containing fraction. The neutrophils were washed with PBS(−) and resuspended in Hanks' Balanced Salt Solution (HBSS+, Gibco) to prepare a cell suspension (8×10^6/ml). The cell suspension was diluted to 5×10^6/ml, introduced into Eppendorf tubes in a volume of 0.4 ml each, then 0.1 ml each of solutions of a test compound at various concentrations were added to the suspension and allowed to react at 25° C. for 5 minutes. After the reaction, 0.1 ml of trichloroacetic acid solution was added to each reaction mixture, the reaction mixture was gently shaken and centrifuged at 12,000 rpm (4° C., 5 minutes), and the supernatant was removed. Subsequently, 3 μl of 1 M Tris solution was added to the residue, the mixture was further mixed with 50 μl of extraction buffer (8 M urea, 0.02% 2-mercaptoethanol, 0.002% bromophenol blue) and left stand at room temperature for 1 hour. Then, the reaction mixture was loaded on a spin column (0.45 μm, Millipore) to remove the insoluble solids and a sample buffer for SDS polyacrylamide gel electrophoresis (25 mM, Tris-HCl pH 6.8, 2.5% 2-mercaptoethanol, 2% sodium dodecylsulfate, 5% sucrose, 0.002% bromophenol blue as final concentrations) was added, and 10 μl of each sample was subjected to electrophoresis.
The gel after the electrophoresis was blotted on a nitrocellulose membrane (BioRad), blocked with 5% skim milk, and reacted successively with antibodies pLC1 (Sakurada K. et al, Am. J. Physiol., 274, C1563-C1572 (1998)), which specifically recognize the phosphorylated myosin regulatory light chain, and donkey anti-mouse IgG (Chemicon) conjugated with horseradish peroxidase. The band of the phosphorylated myosin regulatory light chain was detected on a film by using ECL Plus Kit (Amersham Pharmacia Biotech). This band was subjected to quantification using a densitometer. By using this value, the inhibitory ratio (%) for phosphorylation of the myosin regulatory light chain was calculated by using the following equation. Phosphorylation inhibition ratio(%)=1−(Band intensity of phosphorylated myosin regulatory light chain with addition of the test compound/Band intensity of phosphorylated myosin regulatory light chain without addition of the test compound)×100
Further, the phosphorylation inhibition ratio was calculated with changing the concentrations of the test compound, and a compound concentration providing an inhibition ratio of 50% was obtained as IC50.

Where only a bound is given, the exact number is not on record here.

On to `N[C@H]1CCN(S(=O)(=O)c2cccc3cncc(Br)c23)C1` [Example 1-1, (S)-3-Amino-1-(4-bromo-5-isoquinolinesulfonyl)pyrrolidine], for which the values for the IC50 (in the test with neutrophils; in test [2]) were 10 to 40 µM and less than 10 µM, respectively. Moreover, the inhibition in vivo at 3000 µM in test [1] was no less than 20%.

`N[C@@H]1CCN(S(=O)(=O)c2cccc3cncc(Br)c23)C1` [Example 1-2, (R)-3-Amino-1-(4-bromo-5-isoquinolinesulfonyl)pyrrolidine]: the IC50 is 10 to 40 µM in the test on neutrophils and less than 10 µM in test [2]. Moreover, in test [1], the inhibition in vivo at 3000 µM was no less than 20%.

For `O=S(=O)(c1cccc2cncc(Br)c12)N1CC[C@H](NCc2ccco2)C1` [Example 4-1, (S)-3-(2-Furylmethyl)amino-1-(4-bromo-5-isoquinolinesulfonyl)pyrrolidine], the IC50 (in the test with neutrophils; in test [2]) was less than 10 µM each time. Also, the inhibition in vivo at 3000 µM in test [1] is no less than 20%.

As for `N[C@H]1CCN(S(=O)(=O)c2cccc3c(O)ncc(Br)c23)C1` [Example 7-1, (S)-3-Amino-1-(1-hydroxy-4-bromo-5-isoquinolinesulfonyl)pyrrolidine], the IC50 (with neutrophils; in test [2]) was less than 10 µM throughout. For the same molecule, the inhibition in vivo at 3000 µM in test [1] was no less than 20%.

Turning to `Cc1cncc2cccc(S(=O)(=O)N3CC[C@H](N)C3)c12` [Example 8-1, (S)-3-Amino-1-(4-methyl-5-isoquinolinesulfonyl)pyrrolidine], the IC50 (with neutrophils; in test [2]) was less than 10 µM throughout. Moreover, in test [1], the inhibition in vivo at 3000 µM was no less than 20%.

`Cc1cncc2cccc(S(=O)(=O)N3CC[C@@H](N)C3)c12` [Example 8-2, (R)-3-Amino-1-(4-methyl-5-isoquinolinesulfonyl)pyrrolidine]: the IC50 (in the test with neutrophils; in test [2]) was less than 10 µM each time. Also, the inhibition in vivo at 3000 µM in test [1] was no less than 20%.

For `C=Cc1cncc2cccc(S(=O)(=O)N3CC[C@H](N)C3)c12` [Example 9-1, (S)-3-Amino-1-(4-vinyl-5-isoquinolinesulfonyl)pyrrolidine], the IC50 in the test with neutrophils was 10 to 40 µM; in test [2], less than 10 µM. Moreover, in test [1], the inhibition in vivo at 3000 µM was no less than 20%.

Take `C#Cc1cncc2cccc(S(=O)(=O)N3CC[C@H](N)C3)c12` [Example 10-1, (S)-3-Amino-1-(4-ethynyl-5-isoquinolinesulfonyl)pyrrolidine]: the IC50 with neutrophils is 10 to 40 µM; in test [2], less than 10 µM. Besides, the inhibition in vivo at 3000 µM in test [1] is no less than 20%.

With `N[C@H]1CCN(S(=O)(=O)c2cccc3cncc(C4CC4)c23)C1` [Example 11-1, (S)-3-Amino-1-(4-cyclopropyl-5-isoquinolinesulfonyl)pyrrolidine], the IC50 in the test with neutrophils was 10 to 40 µM; in test [2], less than 10 µM. Also, the inhibition in vivo at 3000 µM in test [1] lay in the range of 5 to 10%.

For `Nc1cncc2cccc(S(=O)(=O)N3CC[C@H](N)C3)c12` [Example 12-1, (S)-3-Amino-1-(4-amino-5-isoquinolinesulfonyl)pyrrolidine], in test [1], the inhibition in vivo at 3000 µM lay within 10 to 20%. Further, in test [2], the IC50 lay in the range of 10 to 40 µM.

For the molecule `N#Cc1cncc2cccc(S(=O)(=O)N3CC[C@H](N)C3)c12` [Example 13-1, (S)-3-Amino-1-(4-cyano-5-isoquinolinesulfonyl)pyrrolidine], the inhibition in vivo at 3000 µM in test [1] lay within 5 to 10%.

On to `COc1cncc2cccc(S(=O)(=O)N3CC[C@H](N)C3)c12` [Example 15-1, (S)-3-Amino-1-(4-methoxy-5-isoquinolinesulfonyl)pyrrolidine], for which the inhibition in vivo at 3000 µM in test [1] lay in the range of 5 to 10%. The IC50 in test [2] is 10 to 40 µM.

On to `N[C@H]1CCN(S(=O)(=O)c2cccc3cncc(F)c23)C1` [Example 18-1, (S)-3-Amino-1-(4-fluoro-5-isoquinolinesulfonyl)pyrrolidine], for which the inhibition in vivo at 3000 µM in test [1] is no less than 20%. The IC50 in test [2] lay within 10 to 40 µM.

`N[C@H]1CCCN(S(=O)(=O)c2cccc3cncc(Cl)c23)C1` [Example 21-1, (S)-3-Amino-1-(4-chloro-5-isoquinolinesulfonyl)piperidine]: the inhibition in vivo at 3000 µM in test [1] is no less than 20%. For the same molecule, the IC50 in test [2] was in the range of 10 to 40 µM.

In the case of `N[C@@H]1CCCN(S(=O)(=O)c2cccc3cncc(Cl)c23)C1` [Example 21-2, (R)-3-Amino-1-(4-chloro-5-isoquinolinesulfonyl)piperidine], the inhibition in vivo at 3000 µM in test [1] lay within 10 to 20%. Further, the IC50 in test [2] is 10 to 40 µM.

Turning to `N[C@H]1CCN(S(=O)(=O)c2cccc3cncc(-c4cnoc4)c23)C1` [Example 24-1, (S)-3-Amino-1-[4-(4-isoxazolyl)-5-isoquinolinesulfonyl]pyrrolidine], the inhibition in vivo at 3000 µM in test [1] was in the range of 5 to 10%.

On to `N[C@H]1CCN(S(=O)(=O)c2cccc3c(O)ncc(F)c23)C1` [Example 29-1, (S)-3-Amino-1-(1-hydroxy-4-fluoro-5-isoquinolinesulfonyl)pyrrolidine], for which the inhibition in vivo at 3000 µM in test [1] fell in the range of 10 to 20%.

Turning to `N[C@H]1CCN(S(=O)(=O)c2cccc3c(O)ncc(Cl)c23)C1` [Example 30-1, (S)-3-Amino-1-(1-hydroxy-4-chloro-5-isoquinolinesulfonyl)pyrrolidine], the inhibition in vivo at 3000 µM in test [1] was no less than 20%.

For the molecule `CN[C@H]1CCN(S(=O)(=O)c2cccc3c(O)ncc(Br)c23)C1` [Example 35-1, (S)-1-(1-Hydroxy-4-bromo-5-isoquinolinesulfonyl)-3-(methylamino)pyrrolidine], the inhibition in vivo at 3000 µM in test [1] was 5 to 10%.

On to `CN[C@@H]1CCN(S(=O)(=O)c2cccc3c(O)ncc(Cl)c23)C1` [Example 36-2, (R)-1-(1-Hydroxy-4-chloro-5-isoquinolinesulfonyl)-3-(methylamino)pyrrolidine], for which, in test [1], the inhibition in vivo at 3000 µM was 10 to 20%.

Take `O=S(=O)(c1cccc2c(O)ncc(Br)c12)N1CC[C@H](NCc2ccco2)C1` [Example 38-1, (S)-1-(1-Hydroxy-4-bromo-5-isoquinolinesulfonyl)-3-(2-furylmethylamino)pyrrolidine]: the inhibition in vivo at 3000 µM in test [1] fell in the range of 5 to 10%.

For the molecule `Nc1ncc(Cl)c2c(S(=O)(=O)N3CC[C@H](N)C3)cccc12` [Example 39-1, (S)-3-Amino-1-(1-amino-4-chloro-5-isoquinolinesulfonyl)pyrrolidine], the inhibition in vivo at 3000 µM in test [1] was in the range of 10 to 20%.

Take `CN[C@H]1CCN(S(=O)(=O)c2cccc3c(N)ncc(Cl)c23)C1` [Example 40-1, (S)-1-(1-Amino-4-chloro-5-isoquinolinesulfonyl)-3-(methylamino)pyrrolidine]: the inhibition in vivo at 3000 µM in test [1] was 5 to 10%.

Consider `CN[C@H]1CCN(S(=O)(=O)c2cccc3c(N)ncc(Br)c23)C1` [Example 42-1, (S)-1-(1-Amino-4-bromo-5-isoquinolinesulfonyl)-3-(methylamino)pyrrolidine], for which, in test [1], the inhibition in vivo at 3000 µM lay in the range of 5 to 10%.
